Reference: EP4644383A1 (Jiangsu Yahong Meditech Co., Ltd., priority 2022, dated 2024)
Like-named read-outs stand apart in the source and are kept apart here.

What was measured:
Format in all cases: biochemical
FGFR2 = target: T1, FGFR2 (Homo sapiens, UniProt P21802); experiment: FGFR2 kinase activity inhibition assay (LanthaScreen TR-FRET)
T1 construct: FGFR2's cytoplasmic domain [399-821 (terminal) amino acids]; purchased Carna 08-134
Method: (§1) FGFR1 kinase activity was measured using Invitrogen LanthaScreen™ assay technology, which utilized fluorescently-labeled peptides and terbium-labeled antibodies to directly measure an amount of the phosphorylated substrate through time-resolved fluorescence energy transfer (TR-FRET). • ① The test compounds were diluted: starting from a concentration of 1 µM, with a buffer solution in a three-fold serial dilution, the buffer solution being composed of 50 mM HEPES, 10 mM MgCl2, 0.01% TritonX-100, 0.01% BSA, 4 mM DTT (pH 7.5), and 1% DMSO; • ② 0.01 nM recombinant human GST fusion protein FGFR1's cytoplasmic domain [398-822 (terminal) amino acids] (Carna: 08-133) was formulated into a 2 × solution, mixed well with the test compounds, and incubated at 23°C for 10 minutes; • ③ 28 nM Fluorescein-Poly GT peptide substrate (Life Technologies: PV3611) and 28 µM ATP were formulated into a 2 × solution, mixed well with the test compounds and enzyme in ②, and incubated at 23°C for 30 minutes; • ④ 10 µL of 2nM Tb-PY20 antibody (Life Technologies: PV3552) and 10 mM EDTA were added to quench the kinase reaction, and incubated at 22°C for 60 minutes. • ⑤ The reaction was measured using a PerkinElmer EnVision multimode plate reader through TR-FRET dual wavelength detection. • 1. The RFU values were copied from the Envision program. • 2. The ratio of RFU 520nm/RFU 495nm was calculated. • 3. The value of the ratio was converted to a percentage inhibition value. % Inhibition = (max-data)/(max-min) × 100 [formula]
(§2) "Min" represents the ratio of the control without enzyme, "max" represents the ratio of the DMSO control, and "data" represents the ratio of the compounds in wells with different concentrations.
(§3) "Top" refers to the maximum response, "Bottom" refers to the minimum response, and "HillSlope" refers to the slope of the curve.
According to the same method as that in the FGFR1 kinase activity inhibition assay, the inhibitory activities against FGFR2, FGFR3 and FGFR4 were tested using FGFR2's cytoplasmic domain [399-821 (terminal) amino acids] (Carna: 08-134), FGFR3's cytoplasmic domain [436-806 (terminal) amino acids] (Carna: 08-135) and FGFR4's cytoplasmic domain [460-802 (terminal) amino acids] (Carna: 08-136), respectively. […]

FGFR1 = target: T2, FGFR1 (Homo sapiens, UniProt P11362); experiment: FGFR1 kinase activity inhibition assay (LanthaScreen TR-FRET)
T2 construct: cytoplasmic domain [398-822 (terminal) amino acids]; purchased Carna 08-133
T2 sequence (P11362 398-822): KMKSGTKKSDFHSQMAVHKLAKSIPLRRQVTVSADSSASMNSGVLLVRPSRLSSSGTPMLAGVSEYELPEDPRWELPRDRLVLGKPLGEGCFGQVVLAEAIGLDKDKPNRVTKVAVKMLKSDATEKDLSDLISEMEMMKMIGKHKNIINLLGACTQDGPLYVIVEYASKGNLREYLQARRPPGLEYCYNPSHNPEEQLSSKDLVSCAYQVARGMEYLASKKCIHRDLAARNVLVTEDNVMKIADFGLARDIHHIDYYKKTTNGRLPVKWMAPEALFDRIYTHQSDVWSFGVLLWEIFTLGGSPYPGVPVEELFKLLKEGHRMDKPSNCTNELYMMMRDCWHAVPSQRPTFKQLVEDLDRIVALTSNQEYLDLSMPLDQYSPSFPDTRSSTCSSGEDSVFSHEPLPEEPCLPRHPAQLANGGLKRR
Method in brief: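 Emission ratio 520 nm/495 nm by TR-FRET after stopping reaction with 10 mM EDTA and 60 min incubation at 22°C. Inhibition normalized between no-enzyme (min) and DMSO (max) controls, then fitted to a four-parameter curve (Top, Bottom, HillSlope).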

FGFR4 = target: T3, FGFR4 (Homo sapiens, UniProt P22455); experiment: FGFR4 kinase activity inhibition assay (LanthaScreen TR-FRET); details: FGFR4 kinase, TR-FRET; read-out: IC50 (nM) FGFR4
T3 construct: FGFR4's cytoplasmic domain [460-802 (terminal) amino acids]; purchased Carna 08-136
T3 sequence (P22455 460-802): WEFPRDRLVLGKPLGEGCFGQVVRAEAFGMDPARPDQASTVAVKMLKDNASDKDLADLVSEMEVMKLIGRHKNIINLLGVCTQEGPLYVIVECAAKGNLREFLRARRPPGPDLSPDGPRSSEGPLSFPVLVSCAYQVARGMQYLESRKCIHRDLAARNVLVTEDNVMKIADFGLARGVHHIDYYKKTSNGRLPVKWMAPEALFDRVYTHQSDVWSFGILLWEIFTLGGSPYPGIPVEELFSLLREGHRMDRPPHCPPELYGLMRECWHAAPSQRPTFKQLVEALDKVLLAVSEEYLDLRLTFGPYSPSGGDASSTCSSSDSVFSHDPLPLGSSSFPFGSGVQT
Method: as §1, §2, §3
According to the same method as that in the FGFR1 kinase activity inhibition assay, the inhibitory activities against FGFR2, FGFR3 and FGFR4 were tested using FGFR2's cytoplasmic domain [399-821 (terminal) amino acids] (Carna: 08-134), FGFR3's cytoplasmic domain [436-806 (terminal) amino acids] (Carna: 08-135) and FGFR4's cytoplasmic domain [460-802 (terminal) amino acids] (Carna: 08-136), respectively. Table 1 reports the kinase activity inhibition results and selectivity towards FGFR3 of each compound.

FGFR3 = target: T4, FGFR3 (Homo sapiens, UniProt P22607); experiment: FGFR3 kinase activity inhibition assay (LanthaScreen TR-FRET); details: for Selectivity (X) FGFR1/FGFR3: ratio of IC50 FGFR1/FGFR3, selectivity towards FGFR3; for Selectivity (X) FGFR2/FGFR3: ratio of IC50 FGFR2/FGFR3, selectivity towards FGFR3; for Selectivity (X) FGFR4/FGFR3: ratio of IC50 FGFR4/FGFR3, selectivity towards FGFR3
T4 construct: FGFR3's cytoplasmic domain [436-806 (terminal) amino acids]; purchased Carna 08-135
T4 sequence (P22607 436-806): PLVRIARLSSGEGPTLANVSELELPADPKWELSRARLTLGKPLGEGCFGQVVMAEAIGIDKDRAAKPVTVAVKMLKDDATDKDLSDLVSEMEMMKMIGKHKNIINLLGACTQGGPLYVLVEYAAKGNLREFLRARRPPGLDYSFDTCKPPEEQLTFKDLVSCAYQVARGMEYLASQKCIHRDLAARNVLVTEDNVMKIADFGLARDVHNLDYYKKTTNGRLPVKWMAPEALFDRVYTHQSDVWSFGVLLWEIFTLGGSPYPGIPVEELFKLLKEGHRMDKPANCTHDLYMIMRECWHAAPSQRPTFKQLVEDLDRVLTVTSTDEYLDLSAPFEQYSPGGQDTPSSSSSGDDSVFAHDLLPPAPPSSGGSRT
Method in brief: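 Read-out is TR-FRET, with the 520 nm/495 nm emission ratio normalised to DMSO (max) and enzyme-free (min) controls. Enzyme was the FGFR3 cytoplasmic domain, residues 436-806. EDTA (10 mM) stopped the reaction, followed by 60 min at 22 °C before reading.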

[1] = FGFR2 kinase, TR-FRET, read-out: IC50 (nM) FGFR2
[2] = FGFR1 kinase, TR-FRET, read-out: IC50 (nM) FGFR1
[3] = FGFR3 kinase, TR-FRET, read-out: IC50 (nM) FGFR3

T1 sequence (P21802 399-821): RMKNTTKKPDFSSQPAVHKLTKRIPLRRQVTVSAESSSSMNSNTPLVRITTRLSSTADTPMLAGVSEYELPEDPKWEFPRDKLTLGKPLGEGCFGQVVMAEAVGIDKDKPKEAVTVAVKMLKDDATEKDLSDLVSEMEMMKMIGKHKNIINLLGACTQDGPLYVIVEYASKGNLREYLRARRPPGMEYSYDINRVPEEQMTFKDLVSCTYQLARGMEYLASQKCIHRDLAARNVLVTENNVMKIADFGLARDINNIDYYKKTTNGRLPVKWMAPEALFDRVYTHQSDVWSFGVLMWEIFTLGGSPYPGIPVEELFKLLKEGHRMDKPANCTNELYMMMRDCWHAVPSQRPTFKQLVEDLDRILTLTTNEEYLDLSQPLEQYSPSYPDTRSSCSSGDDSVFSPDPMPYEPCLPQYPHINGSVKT

IC50 (FGFR2; [1]) | IC50 (FGFR1; [2]) | IC50 (FGFR4) | IC50 (FGFR3; [3]) | Selectivity (X) FGFR1/FGFR3 (FGFR3) | Selectivity (X) FGFR2/FGFR3 (FGFR3) | Selectivity (X) FGFR4/FGFR3 (FGFR3) | Compound | IC50 (FGFR2) | IC50 (FGFR1) | IC50 (FGFR3)
10 to 100 nM | > 100 nM | > 100 nM | 1 to 10 nM | B (B represents 20 ≤ multiple X<50) | A (A represents 1 ≤ multiple X<20) | B (B represents 20 ≤ multiple X<50) | Cc1cc(O[C@H](C)c2c(Cl)cncc2Cl)cc2c(-c3cnn(C)c3)n[nH]c12 [Example 2, (R)-5-(1-(3,5-dichloropyridin-4-yl)ethoxy)-7-methyl-3-(1-methyl-1H-pyrazol-4-yl)-1H-indazole] |  |  | 
< 1 nM | 1 to 10 nM | 1 to 10 nM | < 1 nM | A (A represents 1 ≤ multiple X<20) | A (A represents 1 ≤ multiple X<20) | B (B represents 20 ≤ multiple X<50) | C[C@@H](Oc1cc(F)c2[nH]nc(-c3cnn(C)c3)c2c1)c1c(Cl)cncc1Cl [Example 5, (R)-5-(1-(3,5-dichloropyridin-4-yl)ethoxy)-7-fluoro-3-(1-methyl-1H-pyrazol-4-yl)-1H-indazole] |  |  | 
10 to 100 nM | > 100 nM | > 100 nM | 1 to 10 nM | B (B represents 20 ≤ multiple X<50) | A (A represents 1 ≤ multiple X<20) | B (B represents 20 ≤ multiple X<50) | C[C@@H](Oc1cc(C2CC2)c2[nH]nc(-c3cnn(C)c3)c2c1)c1c(Cl)cncc1Cl [Example 7, (R)-7-cyclopropyl-5-(1-(3,5-dichloropyridin-4-yl)ethoxy)-3-(1-methyl-1H-pyrazol-4-yl)-1H-indazole] |  |  | 
1 to 10 nM | 10 to 100 nM | 10 to 100 nM | 1 to 10 nM | A (A represents 1 ≤ multiple X<20) | A (A represents 1 ≤ multiple X<20) | A (A represents 1 ≤ multiple X<20) | C[C@@H](Oc1cc(F)c2[nH]nc(-c3cnn(CCS(C)(=O)=O)c3)c2c1)c1c(Cl)cncc1Cl [Example 11, (R)-5-(1-(3,5-dichloropyridin-4-yl)ethoxy)-7-fluoro-3-(1-(2-(methylsulfonyl)ethyl)-1H-pyrazol-4-yl)-1H-indazole] |  |  | 
1 to 10 nM | 10 to 100 nM | 10 to 100 nM | 1 to 10 nM | A (A represents 1 ≤ multiple X<20) | A (A represents 1 ≤ multiple X<20) | A (A represents 1 ≤ multiple X<20) | C[C@@H](Oc1cc(F)c2[nH]nc(-c3cnn(CC4CC4)c3)c2c1)c1c(Cl)cncc1Cl [Example 14, (R)-3-(1-(cyclopropylmethyl)-1H-pyrazol-4-yl)-5-(1-(3,5-dichloropyridin-4-yl)ethoxy)-7-fluoro-1H-indazole] |  |  | 
1 to 10 nM | 10 to 100 nM | > 100 nM | 1 to 10 nM | A (A represents 1 ≤ multiple X<20) | A (A represents 1 ≤ multiple X<20) | C (C represents 50 ≤ multiple X<100) | C[C@@H](Oc1cc(F)c2[nH]nc(-c3cnn(CCN(C)C)c3)c2c1)c1c(Cl)cncc1Cl [Example 15, (R)-2-(4-(5-(1-(3,5-dichloropyridin-4-yl)ethoxy)-7-fluoro-1H-indazol-3-yl)-1H-pyrazol-1-yl)-N,N-dimethylethan-1-amine] |  |  | 

The next lines start with the molecule.

Compound | IC50 (FGFR2; [1]) | IC50 (FGFR1; [2]) | IC50 (FGFR4) | IC50 (FGFR3; [3]) | Selectivity (X) FGFR1/FGFR3 (FGFR3) | Selectivity (X) FGFR2/FGFR3 (FGFR3) | Selectivity (X) FGFR4/FGFR3 (FGFR3) | IC50 (FGFR2) | IC50 (FGFR1) | IC50 (FGFR3)
C[C@@H](Oc1cc(F)c2[nH]nc(-c3cnn(CCCN(C)C)c3)c2c1)c1c(Cl)cncc1Cl [Example 17, (R)-3-(4-(5-(1-(3,5-dichloropyridin-4-yl)ethoxy)-7-fluoro-1H-indazol-3-yl)-1H-pyrazol-1-yl)-N,N-dimethylpropan-1-amine] | < 1 nM | 1 to 10 nM | > 100 nM | < 1 nM | A (A represents 1 ≤ multiple X<20) | A (A represents 1 ≤ multiple X<20) | D (D represents 100 ≤ multiple X) |  |  | 
C[C@@H](Oc1cc(F)c2[nH]nc(-c3cnn(CCN4CCCCC4)c3)c2c1)c1c(Cl)cncc1Cl [Example 23, (R)-5-(1-(3,5-dichloropyridin-4-yl)ethoxy)-7-fluoro-3-(1-(2-(piperidin-1-yl)ethyl)-1H-pyrazol-4-yl)-1H-indazole] | 1 to 10 nM | 10 to 100 nM | > 100 nM | 1 to 10 nM | B (B represents 20 ≤ multiple X<50) | A (A represents 1 ≤ multiple X<20) | D (D represents 100 ≤ multiple X) |  |  | 
CC(Oc1ccc2[nH]nc(-c3cnn(C4CCN(C#N)CC4)c3)c2c1)c1cccc2nccnc12 (centres unmarked) [Example 162, 4-(4-(5-(1-(quinoxalin-5-yl)ethoxy)-1H-indazol-3-yl)-1H-pyrazol-1-yl)piperidine-1-carbonitrile] | 10 to 100 nM | 10 to 100 nM |  | 1 to 10 nM | A (A represents 1 ≤ multiple X<20) | A (A represents 1 ≤ multiple X<20) |  |  |  | 
CC(Oc1ccc2[nH]nc(-c3cnn(C4CCN(S(C)(=O)=O)CC4)c3)c2c1)c1cccc2nccnc12 (centres unmarked) [Example 163, 5-(1-((3-(1-(1-(methylsulfonyl)piperidin-4-yl)-1H-pyrazol-4-yl)-1-indazol-5-yl)oxy)ethyl)quinoxaline] |  |  |  |  | A (A represents 1 ≤ multiple X<20) | A (A represents 1 ≤ multiple X<20) |  | 10 to 100 nM | 10 to 100 nM | 1 to 10 nM
CC(Oc1ccc2[nH]nc(-c3cnn(CCCS(C)(=O)=O)c3)c2c1)c1cccc2nccnc12 (centres unmarked) [Example 181, 5-(1-((3-(1-(3-(methylsulfonyl)propyl)-1H-pyrazol-4-yl)-1H-indazol-5-yl)oxy)ethyl)quinoxaline] |  | 10 to 100 nM | 10 to 100 nM | < 1 nM | A (A represents 1 ≤ multiple X<20) |  | A (A represents 1 ≤ multiple X<20) |  |  | 
CNC1CC(n2cc(-c3n[nH]c4ccc(OC(C)c5cccc6nccnc56)cc34)cn2)C1 (centres unmarked) [Example 182, N-methyl-3-(4-(5-(1-(quinoxalin-5-yl)ethoxy)-1H-indazol-3-yl)-1H-pyrazol-1-yl)c yclobutan-1-amine] |  | 10 to 100 nM | 10 to 100 nM | 1 to 10 nM | A (A represents 1 ≤ multiple X<20) |  | A (A represents 1 ≤ multiple X<20) |  |  | 
CC(Oc1ccc2[nH]nc(-c3cnn(C)c3)c2c1)c1cccn2ncc(F)c12 (centres unmarked) [Example 184, 5-(1-(3-fluoropyrazolo[1,5-a]pyridin-4-yl)ethoxy)-3-(1-methyl-1H-pyrazol-4-yl)-1H-indazole] |  | 10 to 100 nM | 1 to 10 nM | < 1 nM | B (B represents 20 ≤ multiple X<50) |  | A (A represents 1 ≤ multiple X<20) |  |  | 
CC(Oc1ccc2[nH]nc(-c3cnn(CCCS(C)(=N)=O)c3)c2c1)c1cc(F)cc2nccnc12 (centres unmarked) [Example 185] |  | 10 to 100 nM | 10 to 100 nM | < 1 nM | B (B represents 20 ≤ multiple X<50) |  | B (B represents 20 ≤ multiple X<50) |  |  | 
